# Reference: paper PMC12627862, “Therapeutic targeting of endothelial calcium signaling accelerates the resolution of lung injury” (Signal Transduction and Targeted Therapy, 2025)
# Read-outs that look alike come from different tables or passages of the source. Starred links: 1 amine or outer side, 2 acyl side, 3 side chain; linkers in the order of their positions; H or OH if unused. Positions of bridges follow the written chain, without caps; N, C: chain ends. Non-standard residues stand in square brackets, D forms with d. Residues, ends and D or L forms follow the SMILES beside them. ξ: configuration not given here. X2 = C[C@@](CCCCC=[*:3])(N[*:1])C(=O)[*:2]; Oic = O=C(O)[C@@H]1C[C@@H]2CCCC[C@@H]2N1; GABOB(3R) = O=C(C[C@@H](O)CN[*:1])[*:2]; d(tBuAla) = CC(C)(C)C[C@@H](N)C(=O)O; dVal(3-OH) = CC(C)(O)[C@@H](N)C(=O)O; tBuAla = CC(C)(C)C[C@H](N)C(=O)O; ξVal(3-OH) = CC(C)(O)C(N)C(=O)O; R5 = C=CCCC[C@@](C)(N)C(=O)O; X1 = O=C(CC(O)CN[*:1])[*:2]; 4Amb = NCc1ccc(C(=O)O)cc1
# Key:
# [1] = Aggregation / solubility at 1 mM; type: physicochemical; settings: summary calls it solubility at 1mM
# Procedure, shortened: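 Solubility and aggregation of compounds were assessed experimentally at 1 mM. Lipophilicity was determined as octanol/water partition coefficient, logP(oct/wat).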
# [2] = Lipophilicity of peptides, logP(oct/wat); type: physicochemical
# Procedure, shortened: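 Shake-flask partition between n-octanol and phosphate buffer, each phase pre-saturated with the other; peptides dissolved in buffer, partitioned at several octanol:water ratios, shaken 1 h at room temperature. After equilibration both phases assayed for peptide; logP = log(octanol/water concentration ratio).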
# [3] = molecular target: EB3 interactions with IP3R3-GFP (Homo sapiens, UniProt Q9UPY8); assay: Competitive binding: inhibition of EB3 interaction with IP3R3-GFP in vitro; type: biochemical; settings: 250 nM
# Description: We tested the efficacy of twenty-three compounds in inhibiting EB3 interactions with IP3R3-GFP via an in vitro approach developed by us[12],[13]. […] Guided by NMR studies, we predicted the binding pose of 109 to EB3 via AutoDock Vina[13],[24],[25].
# [4] = test system: human primary microvascular lung endothelial cells (HLMVECs); assay: Peptide uptake in endothelial cells; type: cell-based
# Description: We next analyzed the cell-penetrating properties of the selected compounds, hereafter referred to as vascular therapeutics (VT). The rate of uptake of 5’6-FAM (fluorescein)-labeled compounds by human primary microvascular lung endothelial cells (HLMVECs) was determined via confocal fluorescence live-cell imaging. FAM-labeled Myr-EBIN[13] and fluorescein alone were used as positive and negative controls, respectively. The t½ uptake and maximal uptake were determined from changes in the integrated fluorescence intensity over a 30 min period (Fig. 2a and Supplementary Fig. 1a). […] Like Myr-EBIN, compounds VT-107, -108 and -109 presented the highest uptake rates of 92.5 ± 5.0%, 82.5 ± 2.8% and 94.7 ± 4.9%, respectively, whereas the linear compound VT-101 was taken up less efficiently, with an average uptake of 58.4 ± 2.7% (Fig. 2a). […] The t½ uptake, however, varied between the tested compounds (Fig. 2b). The stapled compounds presented the shortest t½ uptake, whereas the linear compounds presented the longest t½ (Fig. 2b).
# Peptide uptake in endothelial cells. The rate of peptide uptake by primary human microvascular endothelial cells was measured using 5’6FAM (fluorescein)-labeled peptides and confocal fluorescence live-cell imaging, with fluorescein alone used as a negative control. Changes in intracellular fluorescence for each peptide were monitored over time, and saponin, a detergent, was added at the end of the experiment to induce full uptake of the tested peptides by endothelial cells. The fluorescence intensity inside the cells was tracked over time, and the half-time uptake (t1/2) and maximum uptake were calculated.
# [5] = Stability of selected EB3 inhibitors in human blood plasma; type: in vitro ADME
# Description: Supplementary Table 3. Stability of selected EB3 inhibitors in human blood plasma. The indicated inhibitors were incubated with human plasma at 37 °C and samples were taken at the indicated time points. Plasma proteins were precipitated with ice-cold perchloric acid (60%); the concentration of compounds was measured in supernatant using a liquid chromatography-tandem mass spectrometry (LC-MS/MS). See also Figures 1 and 2.
# [6] = Stability at various storage conditions; type: physicochemical; settings: for amount of peptide remaining after storage: phosphate-buffered sterile saline, 8 days, LC-MS/MS
# Description: Stability assay of peptides in various storage conditions. Peptides were dissolved and stored in phosphate-buffered sterile saline at -20, 4, 37, and 60°C for 8 days. The amount of peptide remaining after the study was analyzed by LC-MS/MS.
# Supplementary Table 5. Stability of selected compounds at various storage conditions. Preliminary accelerated storage stability at various temperature conditions for the selected inhibitors was tested in phosphate-buffered sterile saline at -20 °C, 4 °C, 37 °C and 60 °C for 8 days. See also Figures 1 and 2.
# [7] = test system: HLMVECs; assay: Transendothelial electrical resistance (TEER) assay; type: cell-based, human; settings: 1 µM, 1 hour pretreatment, 50 nM α-thrombin; to the same extent as EBIN
# [8] = test system: mice challenged with a PAR-1 agonist peptide; assay: PAR-1 agonist peptide-induced microvascular leakage in lung; type: in vivo, mouse; settings: i.v. 1 µmol/kg bw pretreatment; n = 5–7 mice per group
# Description: The levels of EBA extravasation in the lungs of mice challenged with PAR-1 AP and treated with these compounds were similar to those observed in control mice treated with a control PAR-1 AP ([…]-NH2), in which the positions of the first two amino acids were reversed.
# PAR-1 agonist peptide-induced microvascular leakage in lung. […] Mice treated with PAR-1 control peptide ([…]-NH2) was used as negative control. For Evan’s blue albumin extravasation, Evans’s blue-labeled albumin was administered at the same time as the PAR-1 AP. Vehicle-treated mice were used as treatment control.
# Evans’ blue-labeled albumin extravasation. To evaluate vascular permeability in lung tissues, mice were injected intravenously with Evans' blue-labeled albumin (25 mg/kg) 30 minutes before the collection of lung tissues. The lungs were perfused via the right ventricle with warmed phosphate-buffered saline to remove intravascular dye, and the right atrium was excised to facilitate clearance. […] The optical density of the supernatant was measured spectrophotometrically at 620 nm (Evans Blue) and 740 nm (hemoglobin correction), with the dye content normalized to the wet weight of the lungs. Corrections for hemoglobin were made as follows: Corrected absorbance (Evans blue) = Absorbance (620) - (1.426 × Absorbance (740) + 0.03). […]
# Chain of EB3 interactions with IP3R3-GFP (Q9UPY8 whole entry): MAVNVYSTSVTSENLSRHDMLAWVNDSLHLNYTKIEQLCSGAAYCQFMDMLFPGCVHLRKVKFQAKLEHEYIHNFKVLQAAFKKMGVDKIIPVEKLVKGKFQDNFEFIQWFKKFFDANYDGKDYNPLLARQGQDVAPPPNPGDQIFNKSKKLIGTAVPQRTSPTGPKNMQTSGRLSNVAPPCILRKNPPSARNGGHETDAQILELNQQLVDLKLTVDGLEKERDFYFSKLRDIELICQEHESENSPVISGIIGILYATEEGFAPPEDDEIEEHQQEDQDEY
compound,measurement,setting,value
"CC(C)(C)C[C@@H]1NC(=O)C[C@@H](O)CNC(=O)[C@@H]2C[C@@H]3CCCC[C@@H]3N2C(=O)[C@H](CC(C)(C)C)NC(=O)c2ccc(cc2)CNC(=O)C(C(C)(C)O)NC(=O)[C@@H](Cc2ccccc2)NC1=O (stereo partly drawn) [compound 109, (1^2S,1^3aS,1^7aS,3S,10S,13R,16S,20R)-13-benzyl-20-hydroxy-10-(2-hydroxypropan-2-yl)-3,16-dineopentyl-1^2,1^3,1^3a,1^4,1^5,1^6,1^7,1^7a-octahydro-1^1H-4,8,11,14,17,22-hexaaza-1(1,2)-indola-6(1,4)-benzenacyclotricosaphane-2,5,9,12,15,18,23-heptaone.] (cyclo([4Amb][tBuAla][Oic][GABOB(3R)][tBuAla][dF][ξVal(3-OH)]))",Aggregation at 1mM,[1],weak signal
same,logD,[2],0.73
same,inhibition at 0.25 µM,[3],58%
same,half-time uptake t1/2,[4],3.42 ± 0.01 min
same,penetration of the cell membrane,[4],able to penetrate the cell membrane without the addition of a cell internalization signal
same,remaining at 1.5 h,"[5]; human, plasma",90%
same,remaining at 20 h,"[5]; human, plasma",91%
same,storage stability,[6],stable
same,α-thrombin-induced changes in TEER,[7],attenuated
same,PAR-1-mediated capillary leakage in the lung (EBA extravasation),[8],completely blocked
"CC(C)(C)C[C@@H]1NC(=O)[C@](C)(NC(=O)c2ccc(CNC(=O)[C@H](N)C(C)(C)O)cc2)CCC/C=C\CCCC[C@@](C)(C(=O)N[C@H](CC(C)(C)C)C(=O)O)NC(=O)CC(O)CNC(=O)[C@@H]2C[C@@H]3CCCC[C@@H]3N2C1=O (stereo partly drawn) [compound 108, (2R)-2-((8S,18R,21S,23aS,27aS,28aS,Z)-18-(4-(((R)-2-amino-3-hydroxy-3-methylbutanamido)methyl)benzamido)-4-hydroxy-8,18-dimethyl-21-neopentyl-1,6,19,22-tetraoxo-1,2,3,4,5,6,7,8,9,10,11,12,15,16,17,18,19,20,21,22,23a,24,25,26,27,27a,28,28a-octacosahydro-[1,4,7,12]tetraazacyclotetracosino[4,5-a]indole-8-carboxamido)-4,4-dimethylpentanoic acid] (H-[dVal(3-OH)][4Amb][R5][tBuAla][Oic][X1][X2][d(tBuAla)]-OH; staple (Z) 3-7)",Aggregation at 1mM,[1],weak signal
same,logD,"[2]; shake-flask n-octanol/phosphate buffer, mutually saturated, shaken 1 hour at room temperature, read-out: Log P (Octanol/Water)",0.46
same,inhibition at 0.25 µM,[3],55%
same,"uptake, percentage of the maximal values obtained following saponin treatment","[4]; 5’6-FAM-labeled compounds, HLMVECs, confocal live-cell imaging over 30 min, mean ± SEM, n = 16–45 cells per group",82.5 ± 2.8%
same,half-time uptake t1/2,"[4]; 5’6-FAM-labeled compounds, HLMVECs, confocal live-cell imaging, n = 3 independent experiments",0.36 ± 0.12 min
same,penetration of the cell membrane,"[4]; 5’6-FAM-labeled compounds, HLMVECs, no cell internalization signal",able to penetrate the cell membrane without the addition of a cell internalization signal
same,remaining at 1.5 h,"[5]; human plasma, 37 °C, 1.5 hr, perchloric acid (60%) precipitation, LC-MS/MS, read-out: compound remaining in human plasma",80%
same,remaining at 20 h,"[5]; human plasma, 37 °C, 20 hr, perchloric acid (60%) precipitation, LC-MS/MS, read-out: compound remaining in human plasma",65%
same,amount of peptide remaining after storage,[6]; 4 °C,102%
same,amount of peptide remaining after storage,[6]; 37 °C,104%
same,amount of peptide remaining after storage,[6]; 60 °C,104%
same,amount of peptide remaining after storage,[6]; -20 °C,104%
same,storage stability,[6]; various storage and temperature conditions,stable
same,α-thrombin-induced changes in TEER,[7],attenuated
same,PAR-1-mediated capillary leakage in the lung (EBA extravasation),[8],completely blocked
